Test results taken from patent US10087144B2, “Agents for use in the treatment of cardiovascular and inflammatory diseases structurally based on 4(1 H)-quinolone” (UCL Business PLC, priority 2015, dated 2018).
Where two headings read alike, the source gives them in different places.

Legend:
[1] = tested on: rat mesenteric arteries; test: Vasoreactivity in rat mesenteric arteries in vitro (relaxation of U46619-contracted vessels, tension myograph); conditions: for EC50: vasorelaxation, calculated from concentration-response curves
Description: Male rats (Sprague-Dawley; 200-250 g) were stunned and killed by cervical dislocation. The mesentery was removed and third-order arteries mounted in an automated tension myograph (Danish Myotechnology). After an equilibration period of 45 min, vessels were normalized and diameter determined. Following normalization, each vessel was contracted repeatedly with the thromboxane A2-mimetic 9,11-dideoxy-11^α,9^α-epoxymethano-prostaglandin F2α (U46619; 1 μM) until the response was reproducible. The vessels were then washed to restore basal tone before contracting to approximately 50% of the maximum U46619-induced response. Once a stable response to U46619 was achieved, cumulative concentration-response curves were constructed with a variety of NPR-C agonists of the invention at varying concentrations (0.001-30 μM), or vehicle (DMSO). In some studies, concentration-response curves to NPR-C agonists were conducted in the presence of the NPR-C antagonist M372049 (10 μM). Only one curve to any one agonist was constructed in any single tissue.

[2] = tested on: human platelets; test: Human platelet aggregation in platelet rich plasma; type: cell-based; conditions: for inhibition at 1 µM: Homo sapiens
Description: Blood samples (35 ml) were taken from healthy volunteers who had abstained from aspirin, non-steroidal anti-inflammatory drugs or paracetamol for 14 days. Blood was collected by venepuncture into tri-sodium citrate (3.2% w/v) and centrifuged at 175 g for 15 min to obtain platelet rich plasma (PRP). Platelet poor plasma (PPP) was obtained by centrifugation of PRP at 15000 g for 5 min. The PRP (100 μl) was then added to the wells of 96-well plates and incubated for 15 mins with representative NPR-C agonists of the invention or vehicle (DMSO). Subsequently, platelet agonists (10 μl each) were added to wells in triplicate: adenosine diphosphate (ADP, 0.1-30 μM), arachidonic acid (AA, 0.03-1.3 mM), collagen (type I equine tendon 0.1-30 μg/ml), adrenaline (0.001-100 μM), ristocetin (0.2-3 mg/ml), TRAP6 (thrombin receptor activating peptide) amide (SFLLRN; 0.1-30 μM), U46619 (0.1-30 μM) or vehicle. Plates were then immediately placed in a 96-well plate reader and absorbance determined at 595 nm every 15 s for 16 min between vigorous shaking at 37° C. Changes in absorbance were converted to % aggregation by reference to the absorbances of PRP and PPP.

[3] = tested on: rat mesenteric artery smooth muscle cells; test: Ca2+ flux in response to Angiotensin II in isolated rat mesenteric artery smooth muscle cells (FLIPR); type: cell-based; conditions: for inhibition at 1 µM / inhibition at 10 µM: Rattus norvegicus; for inhibition at 1 µM: read-out: % inhibition 1 μM; for inhibition at 10 µM: read-out: % inhibition 10 μM
Description: Mesenteric artery smooth muscle cells were isolated from male Sprague-Dawley rats (200-250 g). Mesenteric arteries were dissected, cleared of extraneous tissue and incubated in an enzyme solution containing collagenase type I (1 mg/ml), soybean trypsin inhibitor (0.25 mg/ml), bovine albumin (1 mg/ml), CaCl2 (0.2 mM), 100 U/ml penicillin (100 U/ml) and streptomycin (100 μg/ml) in a humidified incubator with 5% CO2 in air. The enzyme solution was replenished at 30 min intervals and cells were pelleted by centrifugation (200 g, 5 min) and differentially plated (×2) for 15 min in Dulbecco's Modified Eagle's Medium (DMEM) supplemented with penicillin (100 U/ml), streptomycin (100 μg/ml), L-Glutamine (2 mM) and 10% heat inactivated New Zealand foetal calf serum. Cells were passaged by trypsinisation and viability determined by trypan blue exclusion.
Measurements of Ca^2+ flux in response to Angiotensin II were conducted using a Fluorescent Imaging Plate Reader (FLIPR; Molecular Devices). Cells were plated at a density of 10,000 cells/well into black, clear-bottomed 96-well plates in DMEM supplemented with penicillin (100 U/ml), streptomycin (100 μg/ml), L-Glutamine (2 mM) and 10% heat inactivated New Zealand foetal calf serum. 24 hrs later the cells were incubated with Fluo-3-AM (4 μM) for 60 min at 37° C. Once dye-loaded, the cells were washed thoroughly with the proprietary assay buffer to remove any unincorporated dye. The cells were then incubated with varying concentrations of a number of representative NPR-C agonist molecules of the invention, C-type natriuretic peptide or vehicle (DMSO) and placed into the FLIPR. After 15 mins, Angiotensin II (100 nM) was automatically dispensed into each well and the fluorescence signal followed for 5 mins. Potency was determined by comparison of the peak fluorescence in each test well (run in triplicate) with that of the control (Angiotensin II alone). Background fluorescence (assay buffer only) was subtracted from all values.

[4] = target: Human NPR-C (Homo sapiens (Human), UniProt P17342); test: Surface plasmon resonance (SPR) spectroscopy, binding to immobilised human NPR-C; conditions: FIGS. 5, 6 and 7
Human NPR-C, sequence (P17342 27-541): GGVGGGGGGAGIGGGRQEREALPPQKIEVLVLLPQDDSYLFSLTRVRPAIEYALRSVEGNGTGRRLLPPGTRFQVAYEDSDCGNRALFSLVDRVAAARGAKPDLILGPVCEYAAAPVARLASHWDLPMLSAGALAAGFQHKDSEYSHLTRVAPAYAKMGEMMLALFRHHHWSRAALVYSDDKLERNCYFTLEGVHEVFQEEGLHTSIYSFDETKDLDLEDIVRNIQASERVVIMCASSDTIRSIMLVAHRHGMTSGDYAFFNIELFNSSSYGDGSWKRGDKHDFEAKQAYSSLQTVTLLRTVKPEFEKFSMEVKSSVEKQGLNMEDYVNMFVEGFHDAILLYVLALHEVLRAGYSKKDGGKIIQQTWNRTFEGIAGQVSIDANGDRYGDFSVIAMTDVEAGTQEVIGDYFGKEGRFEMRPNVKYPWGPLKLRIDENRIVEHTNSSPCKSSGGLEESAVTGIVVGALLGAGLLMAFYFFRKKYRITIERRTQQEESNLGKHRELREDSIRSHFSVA
Description: All SPR analysis was performed on a BIAcore T200 system using series S CM5 sensor chips. Data processing and analysis were performed using BIAevaluation software and Scrubber2. All sensorgrams were double referenced by subtracting the response on a reference flowcell and a blank sample.
Human NPR-C (OriGene, Rockville, USA), was covalently attached to a CM5 chip via amine coupling. A surface density of 2700 RU was used for measurements with natriuretic peptides and the NPR-C antagonist M372049, and a density of 5200 RU for measurements with compound 118. Sequential injections of CNP (0.25, 0.50, 1, 2 & 4 nM) were performed at a flow rate of 30 μL/min for (240 s for each), followed by a dissociation time of 3600 s. Binding site saturation was observed and the surface was regenerated by two injections of 1M NaCl (200 s each). Binding of M372049 (0.94, 1.88, 3.75, 7.5, 15, 30 & 60 nM) and Compound 118 (1.17, 2.34, 4.70, 9.38, 18.75, 37.50, 75 & 150 μM) was analysed by sequential injections (120 s for M372049, 30 s for compound 118) followed by undisturbed dissociation (600 s for M372049, 30 s for compound 118), during which curves returned to baseline. Kinetic parameters were calculated assuming a simple 1:1 (Langmuir) binding.

[5] = tested on: arterial blood pressure; test: Mean arterial pressure measurements in anesthetized mice; type: in vivo
Description: Mice were maintained under anesthesia (isoflurane, 1-1.5%, in 100% O2 at 0.4 L·min) throughout the experiment and body temperature was kept constant at 37.5° C. A Millar pressure transducer catheter (Millar Instruments, Houston, Tex., USA) was placed in the carotid artery for arterial blood pressure (BP) measurements and a tube catheter (polyvinyl tubing, 0.61 mm outside diameter) in the jugular vein for intravenous bolus doses of 118 ([…]) and vehicle (10% DMSO in PBS) using a 0.5 mL insulin syringe. A pump (flow 0.5 ml/h) was used for infusion of 118 (1 mg/kg/min) or vehicle (10% dimethylsulfoxide; DMSO in PBS) during 10 min. BP was evaluated throughout.

[6] = 1 μM compound, inhibition of Angiotensin II (100 nM) Ca2+ flux peak fluorescence
[7] = 10 μM compound, inhibition of Angiotensin II (100 nM) Ca2+ flux peak fluorescence

CC(C)(C)OC(=O)CNC(=O)c1cn(Cc2ccccc2)c2ccc(Br)cc2c1=O [Compound 28, tert-butyl 2-(1-benzyl-6-bromo-4-oxo-1,4-dihydroquinoline-3-carboxamido)acetate]
inhibition at 1 µM ([1]; Rattus norvegicus, 1 μM, U46619-contracted third-order arteries): 22%
inhibition at 3 µM ([1]; Rattus norvegicus, 3 μM, U46619-contracted third-order arteries): 55%
inhibition at 10 µM ([1]; Rattus norvegicus, 10 μM, U46619-contracted third-order arteries): 97%
inhibition at 30 µM ([1]; Rattus norvegicus, 30 μM, U46619-contracted third-order arteries): 100%
EC50 ([1]; Rattus norvegicus): 1600 nM
inhibition at 1 µM [2]: 14.3%
inhibition at 1 µM [3]: 100%
inhibition at 10 µM [3]: 100%

O=C(O)CNC(=O)c1cn(Cc2ccccc2)c2ccc(Br)cc2c1=O [Compound 118, 2-(1-benzyl-6-bromo-4-oxo-1,4-dihydroquinoline-3-carboxamido)acetic acid]
binding to human NPR-C (SPR) [4]: binding
EC50 ([1]; Rattus norvegicus): 2800 nM
change in BP after intravenous bolus doses ([5]; i.v. bolus, FIG. 2): dose-dependent decrease in BP
change in BP during infusion ([5]; infusion 1 mg/kg/min during 10 min, FIG. 3): reduction in BP that was sustained during 10 minutes
inhibition at 1 µM [2]: 16.7%
inhibition at 1 µM [3, 6]: 95%
inhibition at 10 µM [3, 7]: 100%

C-type natriuretic peptide [CNP, reference compound]
binding to human NPR-C (SPR) [4]: binding
EC50 [1]: 13.8 nM
% inhibition of human platelet aggregation (at 1 microM) [2]: 71.8%
% inhibition 1 μM [3, 6]: 100%
% inhibition 10 μM [3, 7]: 100%
